Tests used:
[1] = system: polymorphonuclear leukocyte (PMN) recruitment; conditions: equimolar dose; cited from earlier work
HPV tumorigenesis = conditions: cited from earlier work
[2] = system: CD4+ and CD8+ cells in the liver; conditions: administration of either RvD1 or RvE1; cited from earlier work
LLC cells [3] = test: Lewis lung carcinoma (LLC) model, with and without anti-PD1 or cisplatin; format: in vivo, C57BL/6J male mice; conditions: monotherapy, 5 mg/kg, i.p, Q5D
Method: A representative compound of Formula IV, RvE1 magnesium dilysinate, was tested for efficacy in several mouse models of cancer, including the Panc2-H7 model of pancreatic cancer, the Lewis lung carcinoma (LLC) model, the MC38 model of colorectal cancer, and the B16F10 model of melanoma. These models are well established, highly tumorigenic syngeneic models in which murine cancer cell lines are injected subcutaneously (SC) into the dorsum of C57BL/6J mice. If left untreated, these tumors grow rapidly and lead to death or euthanasia, per protocol. As detailed below in Examples 1-9 and the accompanying figures, bis RvE1 Mg-di-lysinate (Compound 1) was unexpectedly effective as an anti-cancer agent in each of these model systems when administered in a less than daily (LTD) dosing regimen. […] Without being bound by any theory, the surprising efficacy of LTD dosing of resolvins in the cancer model systems described here may be the result of durable effects on the tumor microenvironment including changes in immune cell phenotype, vascularization, stromal phenotype, and antigen presentation, as well as durable effects on the T-cell compartment such as T-cell priming and increased tumor-infiltrating lymphocytes.
To expand our understanding of bis RvE1 Mg-di-lysinate as a cancer therapy that could be used in combination with other cancer therapies including immune checkpoint inhibitors, bis RvE1 Mg-di-lysinate monotherapy and in combination either anti-PD1 or cisplatin was investigated in the LLC model of non-small cell lung cancer, which is a model known to unresponsive to anti-PD1 therapy and moderately responsive to cisplatin. Yu et al., J Exp Clin Cancer Res. 2010; 29(1):46; Lechner et al., J Immunother. 2013; 36(9):477-489. A total of forty (40) C57BL/6J male mice were injected subcutaneously with 1×10e6 living LLC cells. […] In addition, bis RvE1 Mg-di-lysinate was evaluated in combination with anti-PD1 or cisplatin. […]

LLC cells [4] = test: Metastatic LLC resection model, perioperative (neo-adjuvant) treatment; format: in vivo, C57BL/6J male mice; conditions: 5 mg/kg, i.p, Q6D, first dose 24 hours prior to surgery; compared to vehicle control
Method: To investigate the efficacy of LTD dosing of bis RvE1 Mg-di-lysinate as neo-adjuvant therapy, a study was conducted in the metastatic LLC resection model with treatment initiated in the perioperative window. A total of fifteen (15) C57BL/6J male mice were injected subcutaneously with 1×10e6 living LLC cells. Once tumors reached approximately 1200-1500 mme3 in size, the mice were randomized (n=4-8 per group) to treatment with vehicle (SC, Q6D), bis RvE1 Mg-di-lysinate (300 ug/kg, SC, Q6D), or cisplatin (5 mg/kg, i.p, Q6D), followed by surgical resection of the tumors. The mice in the vehicle and cisplatin groups received an initial dose twenty-four (24) hours prior to surgery, and the mice treated with bis RvE1 Mg-di-lysinate received an initial dose two (2) hours prior to surgery. All mice were sacrificed on day 19 following the death of three mice in the vehicle control group on day 18.

KPC cells = test: Orthotopic KPC model of pancreatic cancer, survival; format: in vivo, C57BL/6J male mice
Method: To expand our understanding of less than daily (LTD) dosing of bis RvE1 Mg-di-lysinate as a cancer therapy that could be used in combination with chemotherapy, bis RvE1 Mg-di-lysinate (Compound 1) was investigated in the orthotopic KPC model of pancreatic cancer. A total of fifteen (15) C57BL/6J male mice were implanted orthotopically with 5×10e5 living KPC cells into the pancreas. The mice were randomized (n=7-8) to treatment with bis RvE1 Mg-di-lysinate (300 ug/kg, SC, Q6D) with or without gemcitabine (50 mg/kg, IP, Q3D, up to 6 doses) one day after tumor cell implantation.

CCC(=O)/C=C/C=C\C[C@@H](O)/C=C/C=C/C=C\[C@@H](O)CCCC(=O)O [Compound 18-oxo-RvE1, 18-oxo-RvE1]
activity in zymosan-induced peritonitis (PMN recruitment) [1]: devoid of activity

CC/C=C\C[C@H](O)/C=C/C=C\C=C\C=C\[C@@H](O)[C@@H](O)C/C=C\CCC(=O)O [RvD1, 7S,8R,17S-trihydroxy-4Z,9E,11E,13Z,15E,19Z-docosahexaenoic acid]
tumor infiltration levels of CD4+ and CD8+ T cells (HPV tumorigenesis; in vivo): did not modify tumor infiltration levels of CD4+ and CD8+ T cells | tumor progression (HPV tumorigenesis; via modulated activity of tumor-associated neutrophils (PMN)): reduce tumor progression | levels of CD4+ and CD8+ cells in the liver [2]: markedly downregulated levels of CD4+ and CD8+ cells in the liver

CC[C@@H](O)/C=C/C=C\C[C@@H](O)/C=C/C=C/C=C\[C@@H](O)CCCC(=O)O [RvE1, 5S,12R,18R-trihydroxy-6Z,8E,10E,14Z,16E-eicosapentaenoic acid]
levels of CD4+ and CD8+ cells in the liver [2]: markedly downregulated levels of CD4+ and CD8+ cells in the liver | activity in zymosan-induced peritonitis (PMN recruitment) [1]: potently reduced polymorphonuclear leukocyte (PMN) recruitment

N.N.[Cl][Pt][Cl] [cisplatin, reference compound]
tumor volume (Day 11 vs Day 0) (LLC cells [3]): failed to demonstrate efficacy as monotherapy compared to placebo | number of lung metastases (LLC cells [4]): failed to show a significant reduction | number of mice with lymph node metastasis (LLC cells [4]): failed to show a significant reduction

Nc1ccn([C@@H]2O[C@H](CO)[C@@H](O)C2(F)F)c(=O)n1 [gemcitabine, reference compound]
mice alive as of the last observation (day 250) (KPC cells; gemcitabine monotherapy group): zero of eight mice | mean survival (KPC cells; gemcitabine monotherapy, 50 mg/kg, IP, Q3D, up to 6 doses): 25 days
